Measurements published in patent US20100310478A1, “SUBSTITUTED BENZOQUINONES AND HYDROQUINONES IN THE TREATMENT OF PERIODONTAL DISEASES” (priority 2007, published 2010).
Values after ≈ are worked out from the molar mass of the structure shown. Like-named read-outs stand apart in the source and are kept apart here.

Experiments:
P. gingivalis NCTC 11834 [1] = assay: Minimum inhibitory concentration (MIC) assay; format: cell-based, Porphyromonas gingivalis
Procedure: (§1) P. gingivalis strains were cultured and maintained on Wilkins-Chalgren Anaerobe Medium (agar and broth) at pH 7.0; all cultures were incubated anaerobically at 37° C. for 5-7 days. This is a standard international method for quantitatively assessing the antimicrobial activity of a compound in a liquid medium. The method used a sterile 96-well microtitre plate, capable of holding about 200 μl of liquid per well. […] The culture medium was as described above. The wells were inoculated with a liquid suspension of freshly grown micro-organism and incubated under the conditions described above. After incubation, the microtitre plate was examined visually (with the aid of a light box) for cloudiness in each well, which would indicate microbial growth. The MIC value was recorded as the lowest concentration of test compound required to inhibit microbial growth, ie the lowest concentration for which the liquid in the well remained clear. The assays were conducted in duplicate (minimum) and included both negative (culture medium with no micro-organisms) and positive (culture medium plus diluting solvent plus micro-organism) controls.

P. gingivalis NCTC 11834 [2] = assay: Minimum bactericidal concentration (MBC) assay; format: cell-based, Porphyromonas gingivalis
Procedure: P. gingivalis strains were cultured and maintained on Wilkins-Chalgren Anaerobe Medium (agar and broth) at pH 7.0; all cultures were incubated anaerobically at 37° C. for 5-7 days.
(§2) This assay, normally carried out after an MIC assay, determines the minimum concentration of a compound that is lethal to the micro-organism being tested.
(§3) These samples were then individually sub-cultured on antibiotic-free agar medium, under the incubation conditions described above. Following incubation they were examined visually for microbial growth.
(§4) The ratio of MIC to MBC should ideally be as close to 1 as possible.

S. mutans ATCC 25175 [3] = assay: Minimum inhibitory concentration (MIC) assay; format: cell-based, Streptococcus mutans
Procedure: as §1, with “S. mutans was” for “P. gingivalis strains were”, “7.0 supplemented with 1 g/L glucose;” for “7.0;”, “incubated” for “incubated anaerobically”, “48 hours in an atmosphere containing 5% CO2. For the formation of biofilms in biofilm disruption assays, however, S. mutans was grown in brain-heart infusion broth supplemented with 5% sucrose.” for “5-7 days.”

S. mutans ATCC 25175 [4] = assay: Minimum bactericidal concentration (MBC) assay; format: cell-based, Streptococcus mutans
Procedure: S. mutans was cultured and maintained on Wilkins-Chalgren Anaerobe Medium (agar and broth) at pH 7.0 supplemented with 1 g/L glucose; all cultures were incubated at 37° C. for 48 hours in an atmosphere containing 5% CO2. For the formation of biofilms in biofilm disruption assays, however, S. mutans was grown in brain-heart infusion broth supplemented with 5% sucrose.
as §2, §3, §4

[5] = test system: Acinetobacter baumanni ATCC 19606; assay: MBC assay; format: cell-based
Procedure: as §2, §3

[6] = test system: Escherichia coli ATCC 25922; assay: MBC assay; format: cell-based
Procedure: as §2, §3

[7] = test system: Klebsiella pneumoniae ATCC 700603; assay: MBC assay; format: cell-based
Procedure: as §2, §3

[8] = test system: Pseudomonas aeruginosa ATCC 27853; assay: MBC assay; format: cell-based
Procedure: as §2, §3

P. gingivalis NCTC 11834 [9] = assay: Short-contact kill assay (SCKA); format: cell-based, Porphyromonas gingivalis; settings: 0.2% (w/v)
Procedure: (§5) This quantitative assay was designed to determine the relative potency of a test compound or combination of test compounds to kill a test micro-organism over a short-contact time period (up to 5 minutes).
(§6) Samples from a culture of micro-organisms (ca. 1×10^8 cfu/ml) prepared in phosphate buffered saline (PBS) containing the relevant test compound(s) were taken at timed intervals (between 0 and 5 minutes), 10-fold serially diluted in PBS and then inoculated onto agar plates in triplicate. A culture containing only the solvent(s) used to dissolve the test compound(s) acted as a control for the assay (maximum solvent load 2.5% v/v).
(§7) The plates were then incubated as described above and subsequently examined visually for growth. Colonies were counted at an appropriate serial dilution (5-50 individual colonies visible) with the aid of a colony counter. These measurements were then converted to numbers of colony forming units (cfu), using the formula: cfu/ml=number of colonies×serial dilution factor×100 (as only a […] was taken).
(§8) These cfu values were then converted into […] values and plotted graphically against time of sample removal.
(§9) At each time point, samples were assessed in triplicate; the final cfu/ml value was an average (mean) of the three readings.
(§10) SCKAs, as described above, were carried out using TBHQ as the test compound. Chlorhexidine was used as a positive control and 2.5% ethanol as a negative control.
(§11) For the SCKA experiments, the TBHQ and chlorhexidine were both tested at concentrations of 0.2% w/v. The TBHQ was dissolved in ethanol and the chlorhexidine in distilled water. All the experiments were conducted in triplicate.

S. mutans ATCC 25175 [10] = assay: Short-contact kill assay (SCKA); format: cell-based, Streptococcus mutans; settings: 0.2% (w/v)
Procedure: as §5, §6, §7, §8, §9, §10, §11

[11] = test system: P. gingivalis 381 biofilm; assay: Biofilm disruption assay on hydroxyapatite discs; format: cell-based, Porphyromonas gingivalis; settings: 0.2% (w/v)
Procedure: (§12) This assay was designed to determine quantitatively the relative potency of a test compound to disrupt (effectively kill) biofilms formed by a test organism on hydroxyapatite (HA) discs. Biofilms were formed on sterile dense ceramic HA discs 7 mm diameter×1.8 mm thick (Clarkson Chromatography) by placing the discs in the appropriate liquid media (as described above) inoculated with the test organism (0.5×10^8 cfu/ml). The HA discs were then incubated at 37° C. for ˜48 hours in a 5% CO2 atmosphere (for S. mutans ATCC 25175) or ˜96 hours under anaerobic conditions (for P. gingivalis 381). Following the incubation period the supernatant was removed from the wells containing the HA discs and the discs were washed x3 with fresh media to ensure all planktonic cells were removed. The HA discs were then transferred to sterile bijoux bottles containing 1 ml of phosphate buffered saline (PBS) plus test compound(s) at the required concentration. After a set time period (usually 2 and/or 5 min), the HA disc was transferred to another sterile bijoux containing 1 ml of fresh growth media. Adherent cells were then harvested by vigorous vortexing for 2 minutes. A sample was then taken, serially diluted 10-fold in fresh growth media and inoculated onto agar plates in triplicate. Untreated HA discs, and HA discs added to PBS containing only the solvents used to dissolve the test compound(s), acted as controls. The plates were then incubated as described above and subsequently examined visually for growth. Colonies were counted at an appropriate serial dilution (5-50 individual colonies visible) with the aid of a colony counter. These measurements were then converted to numbers of colony forming units (cfu), using the formula: cfu/ml=number of colonies×serial dilution factor×100 (as only a 10 μl sample was taken). These cfu values were then converted into log10 values and plotted graphically against time of sample removal. At each time point, samples were assessed in triplicate; the final cfu/ml value was an average (mean) of the three readings. Biofilm disruption assays, as described above, were carried out using TBHQ as the test compound and chlorhexidine as a positive control. The negative control was 5% ethanol. For these experiments, the TBHQ and chlorhexidine were tested at concentrations of 0.2% w/v. The TBHQ was dissolved in ethanol and the chlorhexidine in distilled water. All the experiments were conducted in triplicate.

[12] = test system: S. mutans ATCC 25175 biofilm; assay: Biofilm disruption assay on hydroxyapatite discs; format: cell-based, Streptococcus mutans; settings: 0.2% (w/v)
Procedure: as §12

[13] = 1 min, 3.00 = limit of detection
[14] = 0.5 min, 3.00 = limit of detection
[15] = 5 min, 2.00 = limit of detection

| Compound | MIC (P. gingivalis NCTC 11834 [1]; Table 7) [µg/mL] | MBC (P. gingivalis NCTC 11834 [2]; Table 7) [µg/mL] | MIC/MBC ratio (P. gingivalis NCTC 11834 [2]; Table 7) | MIC (S. mutans ATCC 25175 [3]; Table 8) [µg/mL] | MBC (S. mutans ATCC 25175 [4]; Table 8) [µg/mL] | MIC/MBC ratio (S. mutans ATCC 25175 [4]; Table 8) | MIC/MBC ratio (P. gingivalis NCTC 11834 [2]; Tables 1, 2) | MIC/MBC ratio (S. mutans ATCC 25175 [4]; Tables 1, 2) | Viable cell counts (P. gingivalis NCTC 11834 [9]; 0 min) [Log10 cfu/ml] | Viable cell counts (P. gingivalis NCTC 11834 [9]; 0.5 min) | Viable cell counts (P. gingivalis NCTC 11834 [9]; [13]) | Viable cell counts (S. mutans ATCC 25175 [10]; 0 min) [Log10 cfu/ml] | Viable cell counts (S. mutans ATCC 25175 [10]; [14]) | Viable cell counts (S. mutans ATCC 25175 [10]; [13]) | Viable cell counts ([11]; 0 min) [Log10 cfu/ml] | Viable cell counts ([11]; 2 min) [Log10 cfu/ml] | Viable cell counts [11, 15] | Viable cell counts ([12]; 0 min) [Log10 cfu/ml] | Viable cell counts ([12]; 2 min) [Log10 cfu/ml] | Viable cell counts ([12]; 5 min) [Log10 cfu/ml] | further results |
| --- | --- | --- | --- | --- | --- | --- | --- | --- | --- | --- | --- | --- | --- | --- | --- | --- | --- | --- | --- | --- | --- |
| Oc1ccc(O)c(F)c1F [2,3-difluoro-p-hydroquinone] | 3.9 (≈ 26.7 µM) | 7.8 (≈ 53.4 µM) | 0.5 | 125 (≈ 856 µM) | 250 (≈ 1710 µM) | 0.5 | – | – | – | – | – | – | – | – | – | – | – | – | – | – | – |
| CC(C)(C)c1cc(O)ccc1O [TBHQ, t-butyl-p-hydroquinone] | – | – | – | – | – | – | 0.5 | 1 | 9.32 | 6.50 Log10 cfu/ml | *3.00 Log10 cfu/ml | 7.64 | 7.56 Log10 cfu/ml | 7.36 Log10 cfu/ml | 7.74 | 6.52 | *2.00 Log10 cfu/ml | 6.36 | 6.52 | 6.24 | MIC (P. gingivalis NCTC 11834 [1]; Tables 1, 2): 0.49 µg/mL (≈ 2.95 µM); MBC (P. gingivalis NCTC 11834 [2]; Tables 1, 2): 0.98 µg/mL (≈ 5.9 µM); MIC (S. mutans ATCC 25175 [3]; Tables 1, 2): 31.25 µg/mL (≈ 188 µM); MBC (S. mutans ATCC 25175 [4]; Tables 1, 2): 31.25 µg/mL (≈ 188 µM); MBC [5]: 500 µg/mL (≈ 3010 µM); MBC [6]: 500 µg/mL (≈ 3010 µM); MBC [7]: 1000 µg/mL (≈ 6020 µM); MBC [8]: > 1000 µg/mL |
| CC(C)(C)C1=CC(=O)C=CC1=O [2-t-butyl-p-benzoquinone] | < 0.49 | < 0.49 | – | 31.2 (≈ 190 µM) | 62.5 (≈ 381 µM) | 0.5 | – | – | – | – | – | – | – | – | – | – | – | – | – | – | – |
| CCCCCCc1ccc(O)cc1O [4-hexyl resorcinol] | 3.9 (≈ 20.1 µM) | 7.8 (≈ 40.1 µM) | 0.5 | 31.2 (≈ 161 µM) | 125 (≈ 643 µM) | 0.25 | – | – | – | – | – | – | – | – | – | – | – | – | – | – | – |
| [H]/N=C(\N/C(=N/[H])NCCCCCCNC(=N)NC(=N)Nc1ccc(Cl)cc1)Nc1ccc(Cl)cc1 [CHX, chlorhexidine, reference compound] | – | – | – | – | – | – | 1 | 0.5 | 9.29 | *3.00 Log10 cfu/ml | *3.00 Log10 cfu/ml | 8.05 | *3.00 Log10 cfu/ml | *3.00 Log10 cfu/ml | 7.74 | 6.08 | 6.29 Log10 cfu/ml | 6.36 | 5.00 | 5.21 | MIC (P. gingivalis NCTC 11834 [1]; Porphyromonas gingivalis, NCTC11834, Tables 1, 2, read-out: MIC): 0.98 µg/mL (≈ 1.94 µM); MBC (P. gingivalis NCTC 11834 [2]; Porphyromonas gingivalis, NCTC11834, Tables 1, 2, read-out: MBC): 0.98 µg/mL (≈ 1.94 µM); MIC (S. mutans ATCC 25175 [3]; Streptococcus mutans, ATCC25175, Tables 1, 2, read-out: MIC): 0.625 µg/mL (≈ 1.24 µM); MBC (S. mutans ATCC 25175 [4]; Streptococcus mutans, ATCC25175, Tables 1, 2, read-out: MBC): 1.25 µg/mL (≈ 2.47 µM) |
